Measurements taken from patent publication US20190110473A1, “SYNERGISTIC WEED CONTROL FROM APPLICATIONS OF PYRIDINE CARBOXYLIC ACID HERBICIDES AND PHOTOSYSTEM II INHIBITORS” (Dow AgroSciences LLC, priority 2017, published 2019).

Assays:
Test in all cases: Greenhouse herbicidal activity, visual weed control
Assay type in all cases: in vivo
Settings in all cases: 20-22 d
[1] = system: Canada thistle (Cirsium arvense; CIRAR)
Experimental: (§1) Seeds of the desired test plant species were planted in Sun Gro MetroMix® 306 planting mixture, which typically has a pH of 6.0 to 6.8 and an organic matter content of about 30 percent, in plastic pots with a surface area of 103.2 square centimeters (cm^2). When required to ensure good germination and healthy plants, a fungicide treatment and/or other chemical or physical treatment was applied. The plants were grown for 7-36 days (d) in a greenhouse with an approximate 14 hour (h) photoperiod which was maintained at about 18° C. during the day and 17° C. during the night. Nutrients and water were added on a regular basis and supplemental lighting was provided with overhead metal halide 1000-Watt lamps as necessary. The plants were employed for testing when they reached the second or third true leaf stage.
(§2) An aliquot of formulated Compound 1 (100 grams acid equivalent per liter (g ae/L); emusifiable concentrate (EC)) was placed in a 25 mL glass vial and diluted in a volume of 1.25% (volume per volume (v/v)) aqueous methylated soybean seed oil to obtain a stock solution. The concentrated stock solutions were diluted with an aqueous mixture of 1.25% v/v of aqueous methylated soybean seed oil to provide the appropriate application rates. Compound requirements are based upon a 12 mL application volume at a rate of 187 liters per hectare (L/ha). Compositions of Compound 1 and the photosystem II inhibitor herbicides (propanil, amicarbazone, pyridafol, desmedipham, terbacil, or bromacil) were prepared by adding aliquot or weighted amount of the photosystem II inhibitor into the diluted solutions of Compound 1. The compositions of Compound 1 and the photosystem II inhibitor herbicides were applied to the plant material with an overhead Mandel track sprayer equipped with 8002E nozzles calibrated to deliver 187 L/ha over an application area of 0.503 square meters (m^2) at a spray height of 18 inches (43 centimeters (cm)) above average plant canopy. Control plants were sprayed in the same manner with the solvent blank.
(§3) The efficacy of each of these herbicidal compositions was then evaluated against rapeseed (Brassica napus; BRSNN), shepherd's purse (Capsella bursa-pastoris; CAPBP), common chickweed (Stellaria media; STEME), scentless mayweed (Matricaria inodora; MATIN), corn chamomile (Anthemis arvensis; ANTAR), wild chamomile (Matricaria chamomilla; MATCH), Persian speedwell (Veronica persica; VERPE), ivyleaf speedwell (Veronica hederifolia; VERHE), corn poppy (Papaver rhoeas; PAPRH), kochia (Kochia scoparia; KCHSC), and Canada thistle (Cirsium arvense; CIRAR). The treated plants and control plants were placed in a greenhouse as described above and watered by subirrigation to prevent washoff of the test compounds. After 20-22 d, the condition of the test plants as compared with that of the control plants was determined visually and scored on a scale of 0 to 100 percent where 0 corresponds to no injury and 100 corresponds to complete kill. […]
(§4) The values reported are means.

[2] = system: Persian speedwell (Veronica persica; VERPE)
Experimental: as §1, §2, §3, §4

[3] = system: common chickweed (Stellaria media; STEME)
Experimental: as §1, §2, §3, §4

[4] = system: corn chamomile (Anthemis arvensis; ANTAR)
Experimental: as §1, §2, §3, §4

[5] = system: corn poppy (Papaver rhoeas; PAPRH)
Experimental: as §1, §2, §3, §4

[6] = system: ivyleaf speedwell (Veronica hederifolia; VERHE)
Experimental: as §1, §2, §3, §4

[7] = system: kochia (Kochia scoparia; KCHSC)
Experimental: as §1, §2, §3, §4

[8] = system: rapeseed (Brassica napus; BRSNN)
Experimental: as §1, §2, §3, §4

[9] = system: scentless mayweed (Matricaria inodora; MATIN)
Experimental: as §1, §2, §3, §4

[10] = system: shepherd's purse (Capsella bursa-pastoris; CAPBP)
Experimental: as §1, §2, §3, §4

[11] = system: wild chamomile (Matricaria chamomilla; MATCH)
Experimental: as §1, §2, §3, §4

SMILES: O=c1cc(Cl)[nH]nc1-c1ccccc1 [Pyridafol, pyridafol]
- Obs (% visual control) ([1]; Pyridafol 195 g/ha alone): 0%
- Obs (% visual control) ([2]; Pyridafol 195 g/ha alone): 0%
- Obs (% visual control) ([3]; Pyridafol 195 g/ha alone): 0%
- Obs (% visual control) ([4]; Pyridafol 195 g/ha alone): 0%
- Obs (% visual control) ([5]; PAPRH, Pyridafol 195 g/ha alone): 0%
- Obs (% visual control) ([6]; Pyridafol 195 g/ha alone): 0%
- Obs (% visual control) ([7]; Pyridafol 195 g/ha alone): 0%
- Obs (% visual control) ([8]; Pyridafol 195 g/ha alone): 5%
- Obs (% visual control) ([9]; Pyridafol 195 g/ha alone): 10%
- Obs (% visual control) ([10]; Pyridafol 195 g/ha alone): 0%
- Obs (% visual control) ([11]; Pyridafol 195 g/ha alone): 0%

SMILES: CCOC(=O)Nc1cccc(OC(=O)Nc2ccccc2)c1 [Desmedipham, desmedipham]
- Obs (% visual control) ([1]; Desmedipham 163 g/ha alone): 0%
- Obs (% visual control) ([2]; Desmedipham 163 g/ha alone): 10%
- Obs (% visual control) ([3]; Desmedipham 163 g/ha alone): 0%
- Obs (% visual control) ([4]; Desmedipham 163 g/ha alone): 10%
- Obs (% visual control) ([5]; PAPRH, Desmedipham 163 g/ha alone): 0%
- Obs (% visual control) ([6]; Desmedipham 163 g/ha alone): 10%
- Obs (% visual control) ([7]; Desmedipham 163 g/ha alone): 0%
- Obs (% visual control) ([8]; Desmedipham 163 g/ha alone): 15%
- Obs (% visual control) ([9]; Desmedipham 163 g/ha alone): 10%
- Obs (% visual control) ([10]; Desmedipham 163 g/ha alone): 0%
- Obs (% visual control) ([11]; Desmedipham 163 g/ha alone): 10%

SMILES: CCC(=O)Nc1ccc(Cl)c(Cl)c1 [Propanil, propanil]
- Obs (% visual control) ([1]; Propanil 840 g/ha alone): 10%
- Obs (% visual control) ([2]; Propanil 840 g/ha alone): 10%
- Obs (% visual control) ([3]; Propanil 840 g/ha alone): 0%
- Obs (% visual control) ([4]; Propanil 840 g/ha alone): 50%
- Obs (% visual control) ([5]; R-PAPRH, Propanil 840 g/ha alone): 20%
- Obs (% visual control) ([6]; Propanil 840 g/ha alone): 10%
- Obs (% visual control) ([7]; Propanil 840 g/ha alone): 10%
- Obs (% visual control) ([8]; Propanil 840 g/ha alone): 10%
- Obs (% visual control) ([9]; Propanil 840 g/ha alone): 0%
- Obs (% visual control) ([10]; Propanil 840 g/ha alone): 50%
- Obs (% visual control) ([11]; Propanil 840 g/ha alone): 10%

SMILES: CCC(C)n1c(=O)[nH]c(C)c(Br)c1=O (stereo not shown) [Bromacil, bromacil]
- Obs (% visual control) ([1]; Bromacil 900 g/ha alone): 10%
- Obs (% visual control) ([2]; Bromacil 900 g/ha alone): 10%
- Obs (% visual control) ([3]; Bromacil 900 g/ha alone): 100%
- Obs (% visual control) ([4]; Bromacil 900 g/ha alone): 30%
- Obs (% visual control) ([5]; R-PAPRH, Bromacil 900 g/ha alone): 100%
- Obs (% visual control) ([6]; Bromacil 900 g/ha alone): 30%
- Obs (% visual control) ([7]; Bromacil 900 g/ha alone): 97%
- Obs (% visual control) ([8]; Bromacil 900 g/ha alone): 65%
- Obs (% visual control) ([9]; Bromacil 900 g/ha alone): 100%
- Obs (% visual control) ([10]; Bromacil 900 g/ha alone): 65%
- Obs (% visual control) ([11]; Bromacil 900 g/ha alone): 100%

SMILES: CC(C)c1nn(C(=O)NC(C)(C)C)c(=O)n1N [Amicarbazone, amicarbazone]
- Obs (% visual control) ([1]; Amicarbazone 300 g/ha alone): 50%
- Obs (% visual control) ([2]; Amicarbazone 300 g/ha alone): 20%
- Obs (% visual control) ([3]; Amicarbazone 300 g/ha alone): 20%
- Obs (% visual control) ([4]; Amicarbazone 300 g/ha alone): 30%
- Obs (% visual control) ([5]; PAPRH, Amicarbazone 300 g/ha alone): 30%
- Obs (% visual control) ([6]; Amicarbazone 300 g/ha alone): 50%
- Obs (% visual control) ([7]; Amicarbazone 300 g/ha alone): 50%
- Obs (% visual control) ([8]; Amicarbazone 300 g/ha alone): 60%
- Obs (% visual control) ([9]; Amicarbazone 300 g/ha alone): 30%
- Obs (% visual control) ([10]; Amicarbazone 300 g/ha alone): 50%
- Obs (% visual control) ([11]; Amicarbazone 300 g/ha alone): 95%

SMILES: Nc1c(F)c(-c2ccc3cc[nH]c3c2F)nc(C(=O)O)c1Cl [Compound 1]
- Obs (% visual control) ([1]; Compound 1 5 g/ha alone): 10%
- Obs (% visual control) ([1]; Compound 1 10 g/ha alone): 30%
- Obs (% visual control) ([2]; Compound 1 5 g/ha alone): 70%
- Obs (% visual control) ([2]; Compound 1 10 g/ha alone): 85%
- Obs (% visual control) ([3]; Compound 1 5 g/ha alone): 65%
- Obs (% visual control) ([3]; Compound 1 10 g/ha alone): 70%
- Obs (% visual control) ([4]; Compound 1 5 g/ha alone): 10%
- Obs (% visual control) ([4]; Compound 1 10 g/ha alone): 40%
- Obs (% visual control) ([5]; PAPRH (R-PAPRH in Tables 1 and 6), Compound 1 5 g/ha alone): 75%
- Obs (% visual control) ([5]; PAPRH (R-PAPRH in Tables 1 and 6), Compound 1 10 g/ha alone): 80%
- Obs (% visual control) ([6]; Compound 1 5 g/ha alone): 75%
- Obs (% visual control) ([6]; Compound 1 10 g/ha alone): 75%
- Obs (% visual control) ([7]; Compound 1 5 g/ha alone): 50%
- Obs (% visual control) ([7]; Compound 1 10 g/ha alone): 55%
- Obs (% visual control) ([8]; Compound 1 5 g/ha alone): 40%
- Obs (% visual control) ([8]; Compound 1 10 g/ha alone): 50%
- Obs (% visual control) ([9]; Compound 1 5 g/ha alone): 10%
- Obs (% visual control) ([9]; Compound 1 10 g/ha alone): 60%
- Obs (% visual control) ([10]; Compound 1 5 g/ha alone): 65%
- Obs (% visual control) ([10]; Compound 1 10 g/ha alone): 70%
- Obs (% visual control) ([11]; Compound 1 5 g/ha alone): 10%
- Obs (% visual control) ([11]; Compound 1 10 g/ha alone): 10%

SMILES: Cc1[nH]c(=O)n(C(C)(C)C)c(=O)c1Cl [Terbacil, terbacil]
- Obs (% visual control) ([1]; Terbacil 113 g/ha alone): 30%
- Obs (% visual control) ([2]; Terbacil 113 g/ha alone): 30%
- Obs (% visual control) ([3]; Terbacil 113 g/ha alone): 10%
- Obs (% visual control) ([4]; Terbacil 113 g/ha alone): 0%
- Obs (% visual control) ([5]; PAPRH, Terbacil 113 g/ha alone): 10%
- Obs (% visual control) ([6]; Terbacil 113 g/ha alone): 60%
- Obs (% visual control) ([7]; Terbacil 113 g/ha alone): 0%
- Obs (% visual control) ([8]; Terbacil 113 g/ha alone): 10%
- Obs (% visual control) ([9]; Terbacil 113 g/ha alone): 10%
- Obs (% visual control) ([10]; Terbacil 113 g/ha alone): 30%
- Obs (% visual control) ([11]; Terbacil 113 g/ha alone): 60%
